Publication PMC7691349, “Roles of two glutathione S-transferases in the final step of the β-aryl ether cleavage pathway in Sphingobium sp. strain SYK-6” (Scientific Reports, 2020)

Assays:
LigE = target: T1, LigE (Sphingobium sp. SYK-6, UniProt P27457); assay: chiral HPLC of MPHPV conversion; assay type: biochemical; details: 400 µM racemic MPHPV; 5 mM GSH; 50 mM Tris-HCl pH 7.5; 30 °C; 60 min
T1 construct: full length in pET-16b (pET08660), His-tagged, E. coli BL21(DE3), His SpinTrap purified
T1 sequence (P27457 1-281 limits assumed): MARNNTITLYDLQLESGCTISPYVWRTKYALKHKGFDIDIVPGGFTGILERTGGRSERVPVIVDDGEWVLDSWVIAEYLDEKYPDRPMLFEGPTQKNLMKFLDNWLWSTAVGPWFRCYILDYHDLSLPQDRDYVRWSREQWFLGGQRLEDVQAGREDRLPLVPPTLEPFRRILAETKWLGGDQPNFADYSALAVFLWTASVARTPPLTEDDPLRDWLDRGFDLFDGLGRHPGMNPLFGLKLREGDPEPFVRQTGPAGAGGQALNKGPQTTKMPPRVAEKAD

LigF = target: T2, LigF (Sphingobium sp. SYK-6, UniProt P30347); assay: chiral HPLC of MPHPV conversion; assay type: biochemical; details: 400 µM racemic MPHPV; 5 mM GSH; 50 mM Tris-HCl pH 7.5; 30 °C; 60 min
T2 construct: full length in pET-16b (pET08650), His-tagged, E. coli BL21(DE3), His SpinTrap purified
T2 sequence (P30347 1-257): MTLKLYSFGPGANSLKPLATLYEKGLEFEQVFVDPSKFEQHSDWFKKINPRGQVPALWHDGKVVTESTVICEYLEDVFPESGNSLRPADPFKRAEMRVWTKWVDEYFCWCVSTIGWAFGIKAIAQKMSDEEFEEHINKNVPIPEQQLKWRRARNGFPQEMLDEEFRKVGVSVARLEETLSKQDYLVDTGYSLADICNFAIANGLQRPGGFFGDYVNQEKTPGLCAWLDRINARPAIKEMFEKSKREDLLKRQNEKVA

| Structure (SMILES) | chiral HPLC of MPHPV conversion (LigE) | chiral HPLC of MPHPV conversion (LigF) |
| --- | --- | --- |
| COc1cc(C(=O)[C@@H](CO)Oc2ccccc2OC)ccc1O [(βR)-MPHPV] | LigF and LigE completely converted (βS)-MPHPV and (βR)-MPHPV, respectively | – |
| COc1cc(C(=O)[C@H](CO)Oc2ccccc2OC)ccc1O [(βS)-MPHPV] | – | LigF and LigE completely converted (βS)-MPHPV and (βR)-MPHPV, respectively |
